Reference: US11571455B2, “Methods and compositions for treating alcoholic liver disease” (VANDERBILT UNIVERSITY, priority 2013, dated 2023)
Bridge positions count the residues as written; N and C are the ends. Peptide text beside a SMILES is read from it.

Experiments:
[1] = tested on: Staphylococcal enterotoxin B-induced systemic inflammation; conditions: mouse, in vivo
[2] = molecular target: T1, importin α5/karyopherin α1 (/KPNA1/SRP1) (Homo sapiens, UniProt P52294); test: Binding to the nuclear import adaptor
T1 construct: SRP1/importin alpha 5 (karyopherin alpha1)/importin beta 1 heterodimer expressed in Jurkat T cells; endogenous in cells; host or cells: Jurkat T cells
From the text: Inflammatory liver injury mediated by macrophages (Kupffer cells) or T cells depends on the nuclear import of SRTFs. SRTFs regulate the genome response to proinflammatory and proapoptotic cues. The mechanism of action of cell-penetrating peptides SN50 and its cyclized analog cSN50 that inhibit the nuclear import of SRTFs is shown herein. SN50 binds to a nuclear import adaptor protein termed importin α5/karyopherin α1 (/KPNA1/SRP1) and inhibits its function as a cytoplasmic/nuclear shuttle for SRTFs. […] However, prior to the present disclosure, it was not known how EtOH influences the importin α5/karyopherin α1 (/KPNA1/SRP1)—mediated signaling to the nucleus and genome response in hepatocytes induced by LPS or Con A. Also identified was another putative nuclear import adapter, termed SARM, which appears to participate in LPS-induced liver injury. […] Example 2: Nuclear Import of Stress-Responsive Transcription Factors (SRTFs) Is Required for Inflammatory and Apoptotic Gene Expression.
It is well-recognized that signaling to the nucleus plays a key role in the response of T lymphocytes to immune and inflammatory stimuli. […]

[3] = tested on: nuclear import of NF-κB, AP-1, NFAT, and STAT1 in Jurkat T cells; format: cell-based, human

T1 sequence (P52294 whole entry): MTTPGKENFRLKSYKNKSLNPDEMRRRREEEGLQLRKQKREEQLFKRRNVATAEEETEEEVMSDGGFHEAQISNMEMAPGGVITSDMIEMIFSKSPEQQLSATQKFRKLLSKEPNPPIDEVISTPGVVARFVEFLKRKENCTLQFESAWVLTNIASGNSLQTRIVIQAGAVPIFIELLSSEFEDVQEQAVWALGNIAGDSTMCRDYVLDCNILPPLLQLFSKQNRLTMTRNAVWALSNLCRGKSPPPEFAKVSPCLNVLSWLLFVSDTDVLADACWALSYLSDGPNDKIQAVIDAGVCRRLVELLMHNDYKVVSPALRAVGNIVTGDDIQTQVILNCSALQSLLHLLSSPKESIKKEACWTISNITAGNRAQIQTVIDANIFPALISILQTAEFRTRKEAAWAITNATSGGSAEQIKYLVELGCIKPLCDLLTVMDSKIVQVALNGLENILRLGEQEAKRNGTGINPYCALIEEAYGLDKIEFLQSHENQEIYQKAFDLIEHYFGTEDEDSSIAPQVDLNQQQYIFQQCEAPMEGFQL
T1 sequence (Q14974 whole entry partner): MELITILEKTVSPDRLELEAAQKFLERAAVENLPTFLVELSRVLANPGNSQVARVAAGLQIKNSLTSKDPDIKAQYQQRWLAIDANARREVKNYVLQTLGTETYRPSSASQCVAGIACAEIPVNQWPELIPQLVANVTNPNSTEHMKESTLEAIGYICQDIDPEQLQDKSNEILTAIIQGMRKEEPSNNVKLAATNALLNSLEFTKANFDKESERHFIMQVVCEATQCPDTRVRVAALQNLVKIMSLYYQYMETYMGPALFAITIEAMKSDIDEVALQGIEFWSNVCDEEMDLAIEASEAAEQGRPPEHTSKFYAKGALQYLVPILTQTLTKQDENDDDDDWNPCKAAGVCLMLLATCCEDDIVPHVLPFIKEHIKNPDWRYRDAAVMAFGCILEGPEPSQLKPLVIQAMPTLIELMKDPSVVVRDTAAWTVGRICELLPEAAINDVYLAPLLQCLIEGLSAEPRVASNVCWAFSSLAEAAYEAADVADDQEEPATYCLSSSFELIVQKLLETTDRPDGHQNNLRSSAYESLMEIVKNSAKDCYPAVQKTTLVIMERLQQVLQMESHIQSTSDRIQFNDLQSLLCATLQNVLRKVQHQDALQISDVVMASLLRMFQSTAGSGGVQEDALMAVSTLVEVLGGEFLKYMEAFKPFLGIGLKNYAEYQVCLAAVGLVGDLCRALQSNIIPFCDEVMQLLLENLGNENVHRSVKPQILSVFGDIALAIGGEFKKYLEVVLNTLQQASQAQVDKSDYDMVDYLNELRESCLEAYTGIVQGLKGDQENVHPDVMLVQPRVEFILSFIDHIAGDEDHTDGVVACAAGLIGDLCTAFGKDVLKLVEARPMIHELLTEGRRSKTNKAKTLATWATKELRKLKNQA

Compound | undesirable side effects [1] | binding to importin α5/karyopherin α1 [2] | nuclear import of SRTFs [3]
CSCC[C@@H]1NC(=O)[C@H](CC(C)C)NC(=O)[C@H](CCCCN)NC(=O)[C@H](CCC(N)=O)NC(=O)[C@H](CCCNC(=N)N)NC(=O)[C@H](CCCCN)NC(=O)[C@H](CCCNC(=N)N)NC(=O)[C@H](CCC(N)=O)NC(=O)[C@H](C(C)C)NC(=O)[C@H](Cc2ccc(O)cc2)NC(=O)[C@@H](NC(=O)[C@@H]2CCCN2C(=O)[C@H](C)NC(=O)[C@H](CC(C)C)NC(=O)[C@H](CC(C)C)NC(=O)[C@H](C)NC(=O)[C@H](CC(C)C)NC(=O)[C@H](CC(C)C)NC(=O)[C@@H](NC(=O)[C@H](C)NC(=O)[C@@H]2CCCN2C(=O)[C@H](CC(C)C)NC(=O)[C@H](CC(C)C)NC(=O)[C@H](C)NC(=O)[C@@H](NC(=O)[C@H](C)NC(=O)[C@H](C)N)C(C)C)C(C)C)CSSC[C@@H](C(=O)O)NC(=O)[C@@H]2CCCN2C1=O [cSN50] (H-AAVALLPAVLLALLAPCYVQRKRQKLMPC-OH; disulfide 17-29; N-terminus and C-terminus assumed) | does not seem to cause undesirable side effects |  | 
AAVALLPAVLLALLAPVQRKRQKLMP [SN50, SSHR of K-FGF linked to NLS of NF-κB1 p50] |  | binds | prevents nuclear import of four SRTFs
